{"source": "patent US4185119A", "about": "“Antiallergic methods” (priority 1977, dated 1980)", "type_in_all_cases": "in vivo", "key": {"[1]": {"system": "anaphylactic asthma in guinea-pigs", "test": "Inhibition test of anaphylactic asthma in guinea-pigs", "conditions": "intraperitoneal, survived more than 7 minutes", "description": "(c) Guinea-pig antiserum against egg albumin\nA solution of egg albumin (10 mg.) in normal saline (1 ml.) was mixed with incomplete adjuvant (1 ml.) to give an emulsion. The emulsion was given subcutaneously in a single dose of 0.4 ml. divided equally (0.1 ml.) to the four pads of male Hartley strain guinea-pigs, each weighing 350-380 g.\nTwo weeks after the administration, a solution of egg albumin (1 mg.) in normal saline (1 ml.) was further given subcutaneously in a single dose of 0.4 ml divided equally (0.1 ml.) to the four pads of the same guinea-pigs.\nSubsequently, one week and two weeks after the second adminstration, the guinea-pigs were treated in substantially the same manner as the above second administration.\nOne week after the final administration, blood samples were collected from the guinea-pigs and treated in substantially the same manner as described in the above item (a). The antisera thus obtained were stored at -80° C. prior to use.\n(3) Inhibition test of anaphylactic asthma in guinea-pigs\nTo ten male Hartley strain guinea-pigs, weighing 300 g was given intravenously the guinea-pig antiserum against egg albumin (0.1 ml.), respectively. Twenty four hours after the administration, each of the guinea-pigs was put individually into each of boxes (innercapacity: 5.3 liters). A normal saline containing egg albumine (1%) was continuously sprayed with a nebulizer into the boxes.\nBeforehand, one hour and 30 seconds before putting the guinea-pigs into each of the boxes, a normal saline (1 ml.) containing the prescribed amount of N-methylaurotetanine hydrochloride and carboxymethylcellulose (0.5%) was given intraperitoneally to five guinea-pigs and a normal saline (1 ml.) containing only carboxymethylcellulose (0.5%) was given intraperitoneally to each of the remaining 5 guinea-pigs. Time till the test animal was suffocated to death, was measured and when animals survived more than 7 minutes, inhibition of anaphylactic asthma were judged as effective. Survival (%) was calculated by the following formula: [formula]"}, "[2]": {"system": "P.C.A. reaction in Donryu strain rats", "test": "Inhibition of P.C.A. reaction in Donryu strain rats, rat hyperimmune antiserum against egg albumin", "conditions": "Donryu rat (Table 2-I)", "description": "(b) Rat hyperimmune antiserum against egg albumin\nA solution of egg albumin (20 mg.) in normal saline (1 ml.) was mixed with complete adjuvant (1 ml.) (made by Difco Laboratories) to given an emulsion. The emulsion was subcutaneously given in a single dose of 1 ml. divided equally (0.25 ml.) to the four pads of male S.D. strain rats aged 6 weeks, each weighing about 200 g. (The first immunization).\nOne week after the administration, an emulsion which was prepared by mixing a solution of egg albumin (10 mg.) in normal saline (1 ml.) with complete adjuvant (1 ml.) was further given subcutaneously (at 3 places) and intramuscularly (at 1 place) in a single dose of 1 ml. divided equally (0.25 ml.) to thigh of the same rats. (The second immunization).\nThree weeks after the second administration, a solution of egg albumin (1 mg.) in normal saline (1 ml.) was further given intracutaneously in a single dose of 0.3 ml. divided equally (0.1 ml.) to 3 places of the same rats. (The third immunization).\nOne week after the third administration, blood samples were collected from rats and treated in substantially the same manner as described in the above item (a). The antisera thus obtained were stored at -80° C. prior to use.\nFurther, an inhibition test on P.C.A. reaction using the rat hyperimmuneantiserum against egg albumin was carried out in substantially the same manner as described in the above, excepting that the intravenous administration to bring about P.C.A. was carried out at 5.5 hours after the administration of the serum and antiserum. And inhibitory effect on the P.C.A. reaction was also calculated in substantially the same manner as described in the above.\n(§1) (b) Inhibitory effect on P.C.A. reaction in Donryu strain rat\n(§2) The following tests were carried out in substantially the same manner as described in the above item (2)-(a).\n(§3) (i) Test compound: N:methyllaurotetanine hydrochloride\n(§4) Test animal: Male Donryu strain rats aged 8 weeks, weighing about 130 g.\n(§5) Challenge: A normal saline (0.3 ml.) containing egg albumin (4.5 mg.) and Evans blue (1.5 mg.).\n(§6) (ii) Test commpound: glaucine or boldine\n(§7) Test animal: Male Donryu strain rats aged 8 weeks, weighing 140-150 g.\n(§8) Challenge: the same as the above item (b)-(i)."}, "[3]": {"system": "P.C.A. reaction in Donryu strain rats", "test": "Inhibition of P.C.A. reaction in Donryu strain rats, rat reaginic antiserum against egg albumin", "conditions": "Donryu rat (Table 2-I)", "description": "(a) Rat reaginic antiserum against egg albumin\nA solution of egg albumin (2 mg) in B. pertussis-diphtheria-tetanus mixed vaccine (1 ml.) (made by Takeda Chemical Industries Ltd.) was mixed with an equal volume of incomplete adjuvant (made by Difco Laboratories) to give an emulsion. The emulsion was given subcutaneously in a single dose of 1 ml. divided equally (0.25 ml.) to the four foot pads of male S.D. (Sprague-Dawley) strain rats aged 8 weeks, each weighing about 300 g.\nFive days after the administration, a solution of egg albumin (0.5 mg.) in B. pertussis-diphtheria-tetanus mixed vaccine (0.5 ml.) was further given intramuscularly in a single dose of 0.5 ml. divided equally (0.25 ml.) to 2 places of thigh of the same rats.\nThree days after the second administration, blood samples were collected from femoral artery of the rats and allowed to stand at ambient temperature for 5 hours. The separated supernatant was centrifuged at 4° C. (10,000 r.p.m.× 1 hour). The antisera thus obtained were stored at -80° C. prior to use.\nas §1, §2, §3, §4, §5, §6, §7, §8"}}, "note": "Counter-ions that a name gives are not always drawn."}
{"molecule": "COc1cc2c(cc1O)CC1c3c(cc(OC)c(OC)c3-2)CCN1C", "note": "(stereo not shown) [N-Methyllaurotetanine hydrochloride]", "values": [{"measurement": "Survival", "setting": "[1]; 30 mg/kg", "result": 0, "unit": "%"}, {"measurement": "Survival", "setting": "[1]; 60 mg/kg", "result": 40, "unit": "%"}, {"measurement": "Survival", "setting": "[1]; 120 mg/kg", "result": 80, "unit": "%"}, {"measurement": "Inhibitory effect on P.C.A. reaction", "setting": "[2]; intraperitoneal, 4 mg/kg", "result": 10, "unit": "%"}, {"measurement": "Inhibitory effect on P.C.A. reaction", "setting": "[2]; intraperitoneal, 13 mg/kg", "result": 55, "unit": "%"}, {"measurement": "Inhibitory effect on P.C.A. reaction", "setting": "[2]; intraperitoneal, 40 mg/kg", "result": 50, "unit": "%"}, {"measurement": "Inhibitory effect on P.C.A. reaction", "setting": "[2]; intravenous, 6.7 mg/kg", "result": 50, "unit": "%"}, {"measurement": "Inhibitory effect on P.C.A. reaction", "setting": "[2]; intravenous, 20 mg/kg", "result": 80, "unit": "%"}, {"measurement": "Inhibitory effect on P.C.A. reaction", "setting": "[2]; oral, 20 mg/kg", "result": 30, "unit": "%"}, {"measurement": "Inhibitory effect on P.C.A. reaction", "setting": "[2]; oral, 66 mg/kg", "result": 40, "unit": "%"}, {"measurement": "Inhibitory effect on P.C.A. reaction", "setting": "[2]; oral, 200 mg/kg", "result": 65, "unit": "%"}, {"measurement": "Inhibitory effect on P.C.A. reaction", "setting": "[3]; intraperitoneal, 4 mg/kg", "result": 30, "unit": "%"}, {"measurement": "Inhibitory effect on P.C.A. reaction", "setting": "[3]; intraperitoneal, 13 mg/kg", "result": 60, "unit": "%"}, {"measurement": "Inhibitory effect on P.C.A. reaction", "setting": "[3]; intraperitoneal, 40 mg/kg", "result": 70, "unit": "%"}, {"measurement": "Inhibitory effect on P.C.A. reaction", "setting": "[3]; intravenous, 6.7 mg/kg", "result": 70, "unit": "%"}, {"measurement": "Inhibitory effect on P.C.A. reaction", "setting": "[3]; intravenous, 20 mg/kg", "result": 100, "unit": "%"}, {"measurement": "Inhibitory effect on P.C.A. reaction", "setting": "[3]; oral, 20 mg/kg", "result": 40, "unit": "%"}, {"measurement": "Inhibitory effect on P.C.A. reaction", "setting": "[3]; oral, 66 mg/kg", "result": 70, "unit": "%"}, {"measurement": "Inhibitory effect on P.C.A. reaction", "setting": "[3]; oral, 200 mg/kg", "result": 90, "unit": "%"}]}
